Source: US20040156869A1, “2-substituted quinazolin-4-ylamine analogues” (Neurogen Corporation, priority 2002, published 2004)

biological target: human capsaicin receptor (VR1) (Homo sapiens, UniProt Q8NER1); test: Capsaicin receptor binding assay ([3H]RTX competition, VR1-transfected HEK293 membranes)
Sequence (Q8NER1 whole entry): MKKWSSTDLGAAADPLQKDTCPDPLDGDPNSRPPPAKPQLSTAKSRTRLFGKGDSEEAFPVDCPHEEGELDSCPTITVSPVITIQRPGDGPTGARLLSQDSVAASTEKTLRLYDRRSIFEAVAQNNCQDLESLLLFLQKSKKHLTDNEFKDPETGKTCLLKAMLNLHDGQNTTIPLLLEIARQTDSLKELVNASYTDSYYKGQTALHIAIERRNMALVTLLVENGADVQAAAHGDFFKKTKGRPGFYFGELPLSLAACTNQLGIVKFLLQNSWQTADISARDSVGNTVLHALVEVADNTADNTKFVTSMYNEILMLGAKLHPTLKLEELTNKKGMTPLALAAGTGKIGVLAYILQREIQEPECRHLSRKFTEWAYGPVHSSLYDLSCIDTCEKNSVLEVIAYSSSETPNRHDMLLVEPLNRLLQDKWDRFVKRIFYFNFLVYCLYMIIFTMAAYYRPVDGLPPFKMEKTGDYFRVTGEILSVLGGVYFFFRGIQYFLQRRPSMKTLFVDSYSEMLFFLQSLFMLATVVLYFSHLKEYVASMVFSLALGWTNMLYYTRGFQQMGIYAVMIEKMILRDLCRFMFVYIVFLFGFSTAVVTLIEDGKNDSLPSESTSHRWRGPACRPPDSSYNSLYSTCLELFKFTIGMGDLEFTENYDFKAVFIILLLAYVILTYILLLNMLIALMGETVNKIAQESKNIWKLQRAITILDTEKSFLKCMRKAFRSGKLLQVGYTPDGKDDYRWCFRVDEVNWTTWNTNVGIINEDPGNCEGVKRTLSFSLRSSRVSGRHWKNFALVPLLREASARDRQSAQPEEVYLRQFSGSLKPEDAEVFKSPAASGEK

Ki [µM]	Structure (SMILES)
< 1	CCc1ccc(Nc2nc(CN3CC(C)O[C@H](C)C3)nc3cc(-c4ncccc4C(F)(F)F)ccc23)cc1 (stereo in doubt) [Compound 653, (R,R)-[2-(2,6-Dimethyl-morpholin-4-ylmethyl)-7-(3-trifluoromethyl-pyridin-2-yl)-quinazolin-4-yl]-(4-ethyl-phenyl)-amine]
< 1	CC(C)(C)c1ccc(Nc2nc(CN3C[C@@H](O)C[C@@H]3C(=O)O)nc3cc(-c4ncccc4C(F)(F)F)ccc23)cc1 (stereo in doubt) [Compound 753, (R,S)-1-[4-(4-tert-Butyl-phenylamino)-7-(3-trifluoromethyl-pyridin-2-yl)-quinazolin-2-ylmethyl]-4-hydroxy-pyrrolidine-2-carboxylic acid]
< 1	CC(=O)OCc1nc(Nc2ccc(C(F)(F)F)cc2)c2ccc(-c3ncccc3C(F)(F)F)cc2n1 [Compound 9, Acetic acid 4-(4-trifluoromethyl-phenylamino)-7-(3-trifluoromethyl-pyridin-2-yl)-quinazolin-2-ylmethyl ester]
< 1	FC(F)(F)c1ccc(Nc2nc(CCCOCc3ccccc3)nc3cc(-c4ncccc4C(F)(F)F)ccc23)cc1 [Compound 12, [2-(3-Benzyloxy-propyl)-7-(3-trifluoromethyl-pyridin-2-yl)-quinazolin-4-yl]-(4-trifluoromethyl-phenyl)-amine]
< 1	FC(F)(F)c1ccc(Nc2nc(CCCOCc3ccccc3)nc3cc(-c4ncccc4C(F)(F)F)ccc23)cn1 [Compound 13, [2-(3-Benzyloxy-propyl)-7-(3-trifluoromethyl-pyridin-2-yl)-quinazolin-4-yl]-(6-trifluoromethyl-pyridin-3-yl)-amine]
< 1	CC(C)(C)c1ccc(Nc2nc(CCCOCc3ccccc3)nc3cc(-c4ncccc4C(F)(F)F)ccc23)cn1 [Compound 15, [2-(3-Benzyloxy-propyl)-7-(3-trifluoromethyl-pyridin-2-yl)-quinazolin-4-yl]-(6-tert-butyl-pyridin-3-yl)-amine]
< 1	CC(C)(C)c1ccc(Nc2nc(CCCO)nc3cc(-c4ncccc4C(F)(F)F)ccc23)cn1 [Compound 16, 3-[4-(6-tert-Butyl-pyridin-3-ylamino)-7-(3-trifluoromethyl-pyridin-2-yl)-quinazolin-2-yl]-propan-1-ol]
< 1	COC(=O)CCc1nc(Nc2ccc(C(F)(F)F)cc2)c2ccc(-c3ncccc3C(F)(F)F)cc2n1 [Compound 17, 3-[4-(4-Trifluoromethyl-phenylamino)-7-(3-trifluoromethyl-pyridin-2-yl)-quinazolin-2-yl]-propionic acid methyl ester]
< 1	COC(=O)CCc1nc(Nc2ccc(C(F)(F)F)nc2)c2ccc(-c3ncccc3C(F)(F)F)cc2n1 [Compound 18, 3-[7-(3-Trifluoromethyl-pyridin-2-yl)-4-(6-trifluoromethyl-pyridin-3-ylamino)-quinazolin-2-yl]-propionic acid methyl ester]
< 1	CCOC(=O)Cc1nc(Nc2ccc(C(F)(F)F)cc2)c2ccc(-c3ncccc3C(F)(F)F)cc2n1 [Compound 20, [4-(4-Trifluoromethyl-phenylamino)-7-(3-trifluoromethyl-pyridin-2-yl)-quinazolin-2-yl]-acetic acid ethyl ester]
< 1	CC(=O)OCc1nc(Nc2ccc(C(F)(F)F)nc2)c2ccc(-c3ncccc3C(F)(F)F)cc2n1 [Compound 21, Acetic acid 7-(3-trifluoromethyl-pyridin-2-yl)-4-(6-trifluoromethyl-pyridin-3-ylamino)-quinazolin-2-ylmethyl ester]
< 1	OCc1nc(Nc2ccc(C(F)(F)F)nc2)c2ccc(-c3ncccc3C(F)(F)F)cc2n1 [Compound 22, [7-(3-Trifluoromethyl-pyridin-2-yl)-4-(6-trifluoromethyl-pyridin-3-ylamino)-quinazolin-2-yl]-methanol]
< 1	CC(c1ccc(Nc2nc(COCc3ccccc3)nc3cc(-c4ncccc4C(F)(F)F)ccc23)cc1)C(F)(F)F (centres unmarked) [Compound 23, [2-Benzyloxymethyl-7-(3-trifluoromethyl-pyridin-2-yl)-quinazolin-4-yl]-[4-(2,2,2-trifluoro-1-methyl-ethyl)-phenyl]-amine]
< 1	FC(F)(F)c1ccc(Nc2nc(COCc3ccccc3)nc3cc(-c4ncccc4C(F)(F)F)ccc23)cn1 [Compound 25, [2-Benzyloxymethyl-7-(3-trifluoromethyl-pyridin-2-yl)-quinazolin-4-yl]-(6-trifluoromethyl-pyridin-3-yl)-amine]
< 1	FC(F)(F)c1ccc(Nc2nc(COCc3ccccc3)nc3cc(-c4ncccc4C(F)(F)F)ccc23)nc1 [Compound 26, [2-Benzyloxymethyl-7-(3-trifluoromethyl-pyridin-2-yl)-quinazolin-4-yl]-(5-trifluoromethyl-pyridin-2-yl)-amine]
< 1	FC(F)(F)Oc1ccc(Nc2nc(COCc3ccccc3)nc3cc(-c4ncccc4C(F)(F)F)ccc23)cc1 [Compound 27, [2-Benzyloxymethyl-7-(3-trifluoromethyl-pyridin-2-yl)-quinazolin-4-yl]-(4-trifluoromethoxy-phenyl)-amine]

Ki [µM]	Structure (SMILES)
< 1	O=S(=O)(c1ccc(Nc2nc(COCc3ccccc3)nc3cc(-c4ncccc4C(F)(F)F)ccc23)cc1)C(F)(F)F [Compound 28, [2-Benzyloxymethyl-7-(3-trifluoromethyl-pyridin-2-yl)-quinazolin-4-yl]-(4-trifluoromethanesulfonyl-phenyl)-amine]
< 1	CCN(CC)CCOCc1nc(Nc2ccc(C(F)(F)F)nc2)c2ccc(-c3ncccc3C(F)(F)F)cc2n1 [Compound 29, [2-(2-Diethylamino-ethoxymethyl)-7-(3-trifluoromethyl-pyridin-2-yl)-quinazolin-4-yl]-(6-trifluoromethyl-pyridin-3-yl)-amine]
< 1	FC(F)(F)c1ccc(Nc2nc(COCCN3CCCCC3)nc3cc(-c4ncccc4C(F)(F)F)ccc23)cn1 [Compound 30, [2-(2-Piperidin-1-yl-ethoxymethyl)-7-(3-trifluoromethyl-pyridin-2-yl)-quinazolin-4-yl]-(6-trifluoromethyl-pyridin-3-yl)-amine]
< 1	CN1CCC(OCc2nc(Nc3ccc(C(F)(F)F)nc3)c3ccc(-c4ncccc4C(F)(F)F)cc3n2)CC1 [Compound 31, [2-(1-Methyl-piperidin-4-yloxymethyl)-7-(3-trifluoromethyl-pyridin-2-yl)-quinazolin-4-yl]-(6-trifluoromethyl-pyridin-3-yl)-amine]
< 1	COCc1nc(Nc2ccc(S(C)(=O)=O)cc2)c2ccc(-c3ncccc3C(F)(F)F)cc2n1 [Compound 32, (4-Methanesulfonyl-phenyl)-[2-methoxymethyl-7-(3-trifluoromethyl-pyridin-2-yl)-quinazolin-4-yl]-amine]
< 1	COCc1nc(Nc2ccc(S(=O)(=O)C(F)(F)F)cc2)c2ccc(-c3ncccc3C(F)(F)F)cc2n1 [Compound 35, [2-Methoxymethyl-7-(3-trifluoromethyl-pyridin-2-yl)-quinazolin-4-yl]-(4-trifluoromethanesulfonyl-phenyl)-amine]
< 1	COCc1nc(Nc2ccc(C(C)(C)COC)cc2)c2ccc(-c3ncccc3C(F)(F)F)cc2n1 [Compound 36, [4-(2-Methoxy-1,1-dimethyl-ethyl)-phenyl]-[2-methoxymethyl-7-(3-trifluoromethyl-pyridin-2-yl)-quinazolin-4-yl]-amine]
< 1	COCc1nc(Nc2ccc(S(=O)(=O)NC(C)(C)C)cc2)c2ccc(-c3ncccc3C(F)(F)F)cc2n1 [Compound 37, N-tert-Butyl-4-[2-methoxymethyl-7-(3-trifluoromethyl-pyridin-2-yl)-quinazolin-4-ylamino]-benzenesulfonamide]
< 1	CC(C)(C)NS(=O)(=O)c1ccc(Nc2nc(COCc3ccccc3)nc3cc(-c4ncccc4C(F)(F)F)ccc23)cc1 [Compound 38, 4-[2-Benzyloxymethyl-7-(3-trifluoromethyl-pyridin-2-yl)-quinazolin-4-ylamino]-N-tert-butyl-benzenesulfonamide]
< 1	CS(=O)(=O)c1ccc(Nc2nc(COCc3ccccc3)nc3cc(-c4ncccc4C(F)(F)F)ccc23)cc1 [Compound 40, [2-Benzyloxymethyl-7-(3-trifluoromethyl-pyridin-2-yl)-quinazolin-4-yl]-(4-methanesulfonyl-phenyl)-amine]
< 1	CC(C)(C#N)c1ccc(Nc2nc(COCc3ccccc3)nc3cc(-c4ncccc4C(F)(F)F)ccc23)cc1 [Compound 41, 2-{4-[2-Benzyloxymethyl-7-(3-trifluoromethyl-pyridin-2-yl)-quinazolin-4-ylamino]-phenyl}-2-methyl-propionitrile]
< 1	COCC(C)(C)c1ccc(Nc2nc(COCc3ccccc3)nc3cc(-c4ncccc4C(F)(F)F)ccc23)cc1 [Compound 42, [2-Benzyloxymethyl-7-(3-trifluoromethyl-pyridin-2-yl)-quinazolin-4-yl]-[4-(2-methoxy-1,1-dimethyl-ethyl)-phenyl]-amine]
< 1	CC(C)(C)c1ccc(Nc2nc(COCc3ccccc3)nc3cc(-c4ncccc4C(F)(F)F)ccc23)cc1 [Compound 43, [2-Benzyloxymethyl-7-(3-trifluoromethyl-pyridin-2-yl)-quinazolin-4-yl]-(4-tert-butyl-phenyl)-amine]
< 1	CS(=O)(=O)N1CCc2cc(Nc3nc(COCc4ccccc4)nc4cc(-c5ncccc5C(F)(F)F)ccc34)ccc21 [Compound 44, [2-Benzyloxymethyl-7-(3-trifluoromethyl-pyridin-2-yl)-quinazolin-4-yl]-(1-methanesulfonyl-2,3-dihydro-1H-indol-5-yl)-amine]
< 1	FC(F)(F)c1ccc(Nc2nc(COCc3cccnc3)nc3cc(-c4ncccc4C(F)(F)F)ccc23)cn1 [Compound 45, [2-(Pyridin-3-ylmethoxymethyl)-7-(3-trifluoromethyl-pyridin-2-yl)-quinazolin-4-yl]-(6-trifluoromethyl-pyridin-3-yl)-amine]
< 1	FC(F)(F)c1ccc(Nc2nc(COCc3ccncc3)nc3cc(-c4ncccc4C(F)(F)F)ccc23)cn1 [Compound 46, [2-(Pyridin-4-ylmethoxymethyl)-7-(3-trifluoromethyl-pyridin-2-yl)-quinazolin-4-yl]-(6-trifluoromethyl-pyridin-3-yl)-amine]
